Columns and labels:
Trypanosoma cruzi [1] = assay: Trypanocidal activity against trypomastigote stage of Trypanosoma cruzi NINOA infected in NIH mouse blood assessed as parasite lysis at 10 ug/ml after 24 hrs by optical microscopic method relative to control; type: functional
Trypanosoma cruzi [2] = assay: Trypanocidal activity against trypomastigote stage of Trypanosoma cruzi INC-5 infected in NIH mouse blood assessed as parasite lysis at 10 ug/ml after 24 hrs by optical microscopic method relative to control; type: functional
Trypanosoma cruzi [3] = assay: Trypanocidal activity against trypomastigote stage of Trypanosoma cruzi NINOA infected in NIH mouse blood assessed as […] parasite lysis after 24 hrs by optical microscopic method; type: functional
Trypanosoma cruzi [4] = assay: Trypanocidal activity against trypomastigote stage of Trypanosoma cruzi INC-5 infected in NIH mouse blood assessed as parasite lysis after 24 hrs by optical microscopic method; type: functional; conditions: INC-5, Blood
[5] = biological target: T1, Trans-sialidase (Trypanosoma cruzi) (UniProt Q26964); assay: Inhibition of Trypanosoma cruzi trans-sialidase at 1 mM assessed as reduction of 3'-sialyl-N-acetyllactosamine formation at 1 mM using N-acetyllactosamine as substrate and 3-sialyl-lactose as donor incubated for 15 mins by HPAEC-PAD relative to control
T1 sequence (whole entry): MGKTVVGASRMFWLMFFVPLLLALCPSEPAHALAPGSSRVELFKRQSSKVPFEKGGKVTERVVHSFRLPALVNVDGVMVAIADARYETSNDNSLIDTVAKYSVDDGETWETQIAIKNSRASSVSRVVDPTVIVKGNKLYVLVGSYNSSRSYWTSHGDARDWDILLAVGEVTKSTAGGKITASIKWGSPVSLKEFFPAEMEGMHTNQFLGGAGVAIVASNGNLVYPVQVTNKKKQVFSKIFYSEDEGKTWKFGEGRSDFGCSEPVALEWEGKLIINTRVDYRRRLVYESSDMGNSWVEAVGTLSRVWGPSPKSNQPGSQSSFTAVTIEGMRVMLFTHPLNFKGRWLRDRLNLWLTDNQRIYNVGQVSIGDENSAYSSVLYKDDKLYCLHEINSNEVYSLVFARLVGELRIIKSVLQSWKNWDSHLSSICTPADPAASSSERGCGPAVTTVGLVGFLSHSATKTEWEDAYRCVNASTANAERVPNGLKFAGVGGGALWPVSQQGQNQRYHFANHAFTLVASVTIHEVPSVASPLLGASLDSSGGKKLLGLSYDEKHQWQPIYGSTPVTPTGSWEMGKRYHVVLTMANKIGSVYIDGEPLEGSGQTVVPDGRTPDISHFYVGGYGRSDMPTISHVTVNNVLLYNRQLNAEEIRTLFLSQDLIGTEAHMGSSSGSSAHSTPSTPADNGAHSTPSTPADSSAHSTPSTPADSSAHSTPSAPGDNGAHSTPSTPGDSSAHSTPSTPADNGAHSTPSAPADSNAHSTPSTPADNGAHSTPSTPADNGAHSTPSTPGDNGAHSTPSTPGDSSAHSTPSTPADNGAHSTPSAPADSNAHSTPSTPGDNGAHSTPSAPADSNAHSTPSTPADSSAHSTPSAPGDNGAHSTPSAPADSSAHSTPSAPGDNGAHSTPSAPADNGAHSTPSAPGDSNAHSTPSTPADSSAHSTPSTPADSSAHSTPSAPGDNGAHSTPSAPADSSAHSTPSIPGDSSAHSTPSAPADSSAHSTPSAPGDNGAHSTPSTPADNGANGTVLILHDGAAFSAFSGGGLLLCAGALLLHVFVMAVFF

| SMILES | Activity (Trypanosoma cruzi [1]) [%] | Activity (Trypanosoma cruzi [2]) [%] | LC50 (Trypanosoma cruzi [3]) [µM] | LC50 (Trypanosoma cruzi [4]) [µM] | inhibition [5] [%] |
| --- | --- | --- | --- | --- | --- |
| NC(CC(=O)O)c1ccccc1[N+](=O)[O-] (stereo unspecified) | 23 | 63 | – | – | – |
| CCc1ccc(C(N)CC(=O)O)cc1 (stereo unspecified) | 65 | 50 | 113 | 264 | – |
| O=C(O)CC(c1cccs1)N1C(=O)c2ccccc2C1=O (stereo unspecified) | 22 | 25 | – | – | – |
| O=C(O)CC(c1ccc(Cl)cc1)N1C(=O)c2ccc(C(=O)O)cc2C1=O (stereo unspecified) | 3 | 69 | – | – | – |
| O=C(O)CC(c1cc2c(cc1[N+](=O)[O-])OCCO2)N1C(=O)c2ccccc2C1=O (stereo unspecified) | 54 | 13 | – | – | – |
| NC(CC(=O)O)c1cccs1 (stereo unspecified) | 8 | 32 | – | – | – |
| O=C(O)CC(c1ccccc1[N+](=O)[O-])N1C(=O)c2ccc(C(=O)O)cc2C1=O (stereo unspecified) | 48 | 68 | – | – | – |
| NC(CC(=O)O)c1cc2c(cc1[N+](=O)[O-])OCCO2 (stereo unspecified) | 7 | 15 | – | – | – |
| O=C(O)CC(c1ccc(-c2ccccc2)cc1)N1C(=O)c2ccc(C(=O)O)cc2C1=O (stereo unspecified) | 17 | 57 | – | – | – |
| Cc1ccc2c(c1)C(=O)N(C(CC(=O)O)c1cc3c(cc1[N+](=O)[O-])OCCO3)C2=O (stereo unspecified) | 47 | 63 | – | – | – |
| O=C(O)CC(c1ccc(-c2ccccc2)cc1)N1C(=O)c2ccccc2C1=O (stereo unspecified) | 31 | 22 | – | – | – |
| NC(CC(=O)O)c1ccc2ccccc2c1 (stereo unspecified) | 60 | 60 | 98.7 | 103 | 8.3 |
| O=C(O)CC(c1ccc2c(c1)OCCO2)N1C(=O)c2ccc(C(=O)O)cc2C1=O (stereo unspecified) | 33 | 47 | – | – | – |
| CCc1ccc(C(CC(=O)O)N2C(=O)c3ccc(C)cc3C2=O)cc1 (stereo unspecified) | 65 | 59 | – | – | – |
| O=C(O)CC(c1cccs1)N1C(=O)c2ccc(C(=O)O)cc2C1=O (stereo unspecified) | 67 | 19 | – | – | – |
| O=C(O)CC(c1ccc(Br)cc1)N1C(=O)c2ccccc2C1=O (stereo unspecified) | 8 | 15 | – | – | – |
| O=C(O)CC(c1cc2c(cc1[N+](=O)[O-])OCCO2)N1C(=O)c2ccc(C(=O)O)cc2C1=O (stereo unspecified) | 40 | 59 | – | – | – |
| NC(CC(=O)O)c1ccc([N+](=O)[O-])cc1 (stereo unspecified) | 50 | 68 | 125 | 249 | – |
| Cc1ccc2c(c1)C(=O)N(C(CC(=O)O)c1ccc3c(c1)OCCO3)C2=O (stereo unspecified) | 47 | 40 | – | – | – |
| Cc1ccc(C(CC(=O)O)N2C(=O)c3ccc(C)cc3C2=O)cc1 (stereo unspecified) | 73 | 67 | 85.6 | 43.6 | – |

| SMILES | Activity (Trypanosoma cruzi [1]) [%] | Activity (Trypanosoma cruzi [2]) [%] | LC50 (Trypanosoma cruzi [3]) [µM] | LC50 (Trypanosoma cruzi [4]) [µM] | inhibition [5] [%] |
| --- | --- | --- | --- | --- | --- |
| COc1ccc(C(CC(=O)O)N2C(=O)c3ccc(C)cc3C2=O)cc1 (stereo unspecified) | 78 | 57 | 65.6 | 59.5 | – |
| Cc1ccc2c(c1)C(=O)N(C(CC(=O)O)c1ccc(-c3ccccc3)cc1)C2=O (stereo unspecified) | 25 | 25 | – | – | – |
| NC(CC(=O)O)c1ccc(F)cc1 (stereo unspecified) | 35 | 62 | – | – | – |
| O=C(O)CC(c1ccccc1[N+](=O)[O-])N1C(=O)c2ccccc2C1=O (stereo unspecified) | 56 | 68 | – | – | – |
| NC(CC(=O)O)c1ccc(-c2ccccc2)cc1 (stereo unspecified) | 32 | 37 | – | – | – |
| COc1ccc(C(CC(=O)O)N2C(=O)c3ccc(C(=O)O)cc3C2=O)cc1 (stereo unspecified) | 72 | 32 | – | – | – |
| Cc1ccc2c(c1)C(=O)N(C(CC(=O)O)c1ccco1)C2=O (stereo unspecified) | 27 | 40 | – | – | 40 |
| Cc1ccc(C(CC(=O)O)N2C(=O)c3ccc(C(=O)O)cc3C2=O)cc1 (stereo unspecified) | 85 | 55 | 110 | 39.9 | – |
| NC(CC(=O)O)c1ccc(Br)cc1 (stereo unspecified) | 20 | 18 | – | – | – |
| CCc1ccc(C(CC(=O)O)N2C(=O)c3ccc(C(=O)O)cc3C2=O)cc1 (stereo unspecified) | 23 | 61 | – | – | – |
| Cc1ccc2c(c1)C(=O)N(C(CC(=O)O)c1ccc3ccccc3c1)C2=O (stereo unspecified) | 63 | 65 | 52.7 | 46.2 | 86.9 |
| O=C(O)CC(c1ccc([N+](=O)[O-])cc1)N1C(=O)c2ccccc2C1=O (stereo unspecified) | 62 | 80 | 53.5 | 119 | – |
| NC(CC(=O)O)c1ccc2c(c1)OCCO2 (stereo unspecified) | 37 | 52 | – | – | – |
| CC1CS(=O)(=O)CCN1/N=C/c1ccc([N+](=O)[O-])o1 (stereo unspecified) [NIFURTIMOX] | 40.74 | 50 | – | – | – |
| Cc1ccc2c(c1)C(=O)N(C(CC(=O)O)c1ccccc1[N+](=O)[O-])C2=O (stereo unspecified) | 22 | 65 | – | – | – |
| O=C(Cn1ccnc1[N+](=O)[O-])NCc1ccccc1 [BENZNIDAZOLE] | 46.3 | 56 | 130 | 124 | – |
| NC(CC(=O)O)c1ccco1 (stereo unspecified) | 53 | 50 | 99.1 | 229 | 11.9 |
| O=C(O)CC(c1ccc([N+](=O)[O-])cc1)N1C(=O)c2ccc(C(=O)O)cc2C1=O (stereo unspecified) | 23 | 63 | – | – | – |
| Cc1ccc2c(c1)C(=O)N(C(CC(=O)O)c1cccs1)C2=O (stereo unspecified) | 47 | 48 | – | – | – |
| Cc1ccc(C(CC(=O)O)N2C(=O)c3ccccc3C2=O)cc1 (stereo unspecified) | 23 | 22 | – | – | – |

| SMILES | Activity (Trypanosoma cruzi [1]) [%] | Activity (Trypanosoma cruzi [2]) [%] | LC50 (Trypanosoma cruzi [3]) [µM] | LC50 (Trypanosoma cruzi [4]) [µM] | inhibition [5] [%] |
| --- | --- | --- | --- | --- | --- |
| Cc1ccc2c(c1)C(=O)N(C(CC(=O)O)c1ccc([N+](=O)[O-])cc1)C2=O (stereo unspecified) | 45 | 25 | – | – | – |
| O=C(O)CC(c1ccc(Br)cc1)N1C(=O)c2ccc(C(=O)O)cc2C1=O (stereo unspecified) | 23 | 56 | – | – | – |
| Cc1ccc(C(N)CC(=O)O)cc1 (stereo unspecified) | 78 | 59 | 184 | 290 | – |
| Cc1ccc2c(c1)C(=O)N(C(CC(=O)O)c1ccc(Br)cc1)C2=O (stereo unspecified) | 65 | 50 | 24.6 | 23 | – |
| O=C(O)CC(c1ccc2ccccc2c1)N1C(=O)c2ccc(C(=O)O)cc2C1=O (stereo unspecified) | 42 | 24 | – | – | 66.9 |
| O=C(O)CC(c1ccc(O)cc1)N1C(=O)c2ccc(C(=O)O)cc2C1=O (stereo unspecified) | 43 | 71 | – | – | 53 |
| COc1ccc(C(CC(=O)O)N2C(=O)c3ccccc3C2=O)cc1 (stereo unspecified) | 24 | 9 | – | – | – |
| O=C(O)CC(c1ccc(F)cc1)N1C(=O)c2ccccc2C1=O (stereo unspecified) | 63 | 52 | 90.8 | 81.4 | – |
| NC(CC(=O)O)c1ccc(Cl)cc1 (stereo unspecified) | 13 | 73 | – | – | – |
| O=C(O)CC(c1ccco1)N1C(=O)c2ccccc2C1=O (stereo unspecified) | 16 | 21 | – | – | 76.5 |
| Cc1ccc2c(c1)C(=O)N(C(CC(=O)O)c1ccc(F)cc1)C2=O (stereo unspecified) | 63 | 56 | 45.2 | 74.6 | – |
| CCc1ccc(C(CC(=O)O)N2C(=O)c3ccccc3C2=O)cc1 (stereo unspecified) | 22 | 8 | – | – | – |
| O=C(O)CC(c1ccc(Cl)cc1)N1C(=O)c2ccccc2C1=O (stereo unspecified) | 36 | 70 | – | – | – |
| O=C(O)CC(c1ccc(F)cc1)N1C(=O)c2ccc(C(=O)O)cc2C1=O (stereo unspecified) | 10 | 67 | – | – | – |
| Cc1ccc2c(c1)C(=O)N(C(CC(=O)O)c1ccc(Cl)cc1)C2=O (stereo unspecified) | 52 | 51 | 37.7 | 52 | – |
| O=C(O)CC(c1ccc2c(c1)OCCO2)N1C(=O)c2ccccc2C1=O (stereo unspecified) | 24 | 41 | – | – | – |
| COc1ccc(C(N)CC(=O)O)cc1 (stereo unspecified) | 83 | 54 | 102 | 256 | – |
| Cc1ccc2c(c1)C(=O)N(C(CC(=O)O)c1ccc(O)cc1)C2=O (stereo unspecified) | 38 | 15 | – | – | 82.5 |
